# Measurements: ChEMBL document CHEMBL1143950, “Antifungal and cytotoxic activities of some N-substituted aniline derivatives bearing a hetaryl fragment” (Bioorg Med Chem, 2008)
# Tests used:
# Type in all cases: functional
# Aspergillus fumigatus = experiment: Antifungal activity against Aspergillus fumigatus ATCC 26934 by micro-broth dilution method
# Cryptococcus neoformans [1] = experiment: Antifungal activity against Cryptococcus neoformans ATCC 32264 by microbroth dilution method
# Saccharomyces cerevisiae = experiment: Antifungal activity against Saccharomyces cerevisiae ATCC 9763 by microbroth dilution method
# Candida albicans = experiment: Antifungal activity against Candida albicans ATCC 10231 by micro-broth dilution method
# [2] = test system: Trichophyton mentagrophytes; experiment: Antifungal activity against Trichophyton mentagrophytes ATCC 9972 by micro-broth dilution method
# Trichophyton rubrum = experiment: Antifungal activity against Trichophyton rubrum C113 by microbroth dilution method
# Aspergillus flavus = experiment: Antifungal activity against Aspergillus flavus ATCC 9170 by micro-broth dilution method
# Aspergillus niger = experiment: Antifungal activity against Aspergillus niger ATCC 9029 by micro-broth dilution method
# Nannizzia gypsea = experiment: Antifungal activity against Microsporum gypseum C115 by microbroth dilution method
# Candida tropicalis = experiment: Antifungal activity against Candida tropicalis C131 by micro-broth dilution method
# Cryptococcus neoformans [3] = experiment: Antifungal activity against Cryptococcus neoformans IM 031706 by micro-broth dilution method
# Cryptococcus neoformans [4] = experiment: Antifungal activity against Cryptococcus neoformans IM 961951 by micro-broth dilution method
# Cryptococcus neoformans [5] = experiment: Antifungal activity against Cryptococcus neoformans IM 042074 by micro-broth dilution method
# Cryptococcus neoformans [6] = experiment: Antifungal activity against Cryptococcus neoformans IM 972751 by microbroth dilution method
# Cryptococcus neoformans [7] = experiment: Antifungal activity against Cryptococcus neoformans IM 031631 by micro-broth dilution method
# Cryptococcus neoformans [8] = experiment: Antifungal activity against Cryptococcus neoformans IM 00319 by microbroth dilution method
# Cryptococcus neoformans [9] = experiment: Antifungal activity against Cryptococcus neoformans IM 972724 by micro-broth dilution method
# Cryptococcus neoformans [10] = experiment: Antifungal activity against Cryptococcus neoformans IM 983040 by micro-broth dilution method
# Cryptococcus neoformans [11] = experiment: Antifungal activity against Cryptococcus neoformans IM 983036 by micro-broth dilution method
SMILES,MIC (Aspergillus fumigatus) [mg/L],MIC (Cryptococcus neoformans [1]) [mg/L],MIC (Saccharomyces cerevisiae) [mg/L],MIC (Candida albicans) [mg/L],MIC [2] [mg/L],MIC (Trichophyton rubrum) [mg/L],MIC (Aspergillus flavus) [mg/L],MIC (Aspergillus niger) [mg/L],MIC (Nannizzia gypsea) [mg/L],MIC (Candida tropicalis) [mg/L],MIC (Cryptococcus neoformans [3]) [mg/L],MIC (Cryptococcus neoformans [4]) [mg/L],MIC (Cryptococcus neoformans [5]) [mg/L],MIC (Cryptococcus neoformans [6]) [mg/L],MIC (Cryptococcus neoformans [7]) [mg/L],MIC (Cryptococcus neoformans [8]) [mg/L],MIC (Cryptococcus neoformans [9]) [mg/L],MIC (Cryptococcus neoformans [10]) [mg/L],MIC (Cryptococcus neoformans [11]) [mg/L]
CC(=O)N1CCN(c2ccc(OC[C@H]3CO[C@](Cn4ccnc4)(c4ccc(Cl)cc4Cl)O3)cc2)CC1 [KETOCONAZOLE],0.125,0.25,0.5,0.5,0.025,0.025,0.5,0.25,0.05,0.125,,,,,,,,,
Cc1ccc(NCc2ccoc2)cc1,250,125,250,250,250,250,250,250,125,250,,,,,,,,,
c1ccc(NCc2ccco2)cc1,62.5,250,> 250,250,100,100,100,100,100,250,,,,,,,,,
N#CC(Nc1ccccc1)c1ccoc1 (stereo not drawn),> 250,> 250,> 250,> 250,250,250,> 250,> 250,> 250,> 250,,,,,,,,,
c1ccc(NCc2ccsc2)cc1,250,250,250,250,125,125,250,250,250,250,,,,,,,,,
C=CCC(Nc1ccccc1)c1cccs1 (stereo not drawn),> 250,> 250,> 250,> 250,125,125,> 250,> 250,125,> 250,,,,,,,,,
COc1ccc(CNc2cccc([N+](=O)[O-])c2)cc1,> 250,> 250,> 250,> 250,> 250,> 250,> 250,> 250,> 250,> 250,,,,,,,,,
Clc1ccc(NCc2ccco2)cc1,50,50,50,62.5,12.5,6.25,50,62.5,12.5,62.5,,,,,,,,,
N#CC(Nc1ccccc1)c1ccsc1 (stereo not drawn),> 250,> 250,> 250,> 250,250,250,> 250,> 250,> 250,> 250,,,,,,,,,
C=CCC(Nc1ccc(Br)cc1)c1ccncc1 (stereo not drawn),> 250,> 250,> 250,> 250,31.2,16,> 250,> 250,16,> 250,,,,,,,,,
C[C@@H](c1ncncc1F)[C@](O)(Cn1cncn1)c1ccc(F)cc1F [VORICONAZOLE],,,,,,,,,,,0.015,0.03,< 0.015,0.25,0.5,0.03,< 0.015,< 0.015,< 0.015
C=CCC(Nc1ccccc1)c1ccncc1 (stereo not drawn),250,250,125,250,62.5,250,250,250,125,250,,,,,,,,,
Brc1ccc(NCc2ccco2)cc1,50,50,50,62.5,12.5,3.12,50,62.5,6.25,75,,,,,,,,,
Cn1cccc1CNc1ccccc1,> 250,> 250,> 250,> 250,250,250,> 250,> 250,> 250,> 250,,,,,,,,,
C=CCC(Nc1cc(C)cc(C)c1)c1ccncc1 (stereo not drawn),> 250,> 250,250,250,125,250,> 250,> 250,125,250,,,,,,,,,
CCC(C)n1ncn(-c2ccc(N3CCN(c4ccc(OCC5COC(Cn6cncn6)(c6ccc(Cl)cc6Cl)O5)cc4)CC3)cc2)c1=O (stereo not drawn) [ITRACONAZOLE],,,,,,,,,,,< 0.015,< 0.015,< 0.015,0.25,0.5,< 0.015,0.25,< 0.015,< 0.015
